Data taken from patent US9493432B2, “Cyclopentylbenzamide derivatives and their use for the treatment of psychotic and cognitive disorders” (Takeda Pharmaceutical Company Limited, priority 2013, dated 2016).

Experiments:
[1] = target: human orexin receptor 2 (Homo sapiens (Human), UniProt O43614); assay: Orexin antagonist activity, intracellular calcium FLIPR assay (orexin receptor 2); format: cell-based; conditions: RBL-2H3 cells stably expressing human orexin receptor 2; Ca2+ dye FLIPR; compound 15 minutes before orexin-A at approximately 80% maximal response; read-out: Human Orexin2R IC50
human orexin receptor 2, sequence (O43614 whole entry): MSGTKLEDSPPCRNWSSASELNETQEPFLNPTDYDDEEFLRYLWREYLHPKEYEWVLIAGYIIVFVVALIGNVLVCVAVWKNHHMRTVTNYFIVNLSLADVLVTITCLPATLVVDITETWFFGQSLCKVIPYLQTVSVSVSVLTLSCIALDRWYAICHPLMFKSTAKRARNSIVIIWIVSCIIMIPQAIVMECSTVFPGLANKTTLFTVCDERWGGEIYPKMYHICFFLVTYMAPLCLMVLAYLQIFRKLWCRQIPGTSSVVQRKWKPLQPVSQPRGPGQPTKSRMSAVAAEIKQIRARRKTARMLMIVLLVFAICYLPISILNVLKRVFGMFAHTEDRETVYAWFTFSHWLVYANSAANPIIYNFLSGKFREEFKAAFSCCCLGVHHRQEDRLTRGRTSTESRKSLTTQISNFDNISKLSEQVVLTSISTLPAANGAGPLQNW
Protocol: (§1) Orexin antagonist activity was determined by measuring changes in intracellular calcium levels using a Ca^2+ sensitive fluorescent dye. The changes in fluorescent signal were monitored by Fluorescent Imaging Plate Reader (FLIPR™) technology available from Molecular Devices, LLC, U.S.A. Orexin mediated increases in intracellular Ca^2+ concentration were readily detected upon activation with orexin-A. Twenty-four hours prior to the assay, RBL-2H3 cells stably expressing either human orexin receptor 1 or human orexin receptor 2 were seeded in cell culture medium in black, clear-bottom 384-well plates (commercially available from Corning Inc., U.S.A.) and grown overnight at 37° C., 5% CO2. On the day of the assay, cell culture media was removed and cells were loaded with Calcium 5 Dye (commercially sold by Molecular Devices, LLC, U.S.A.) for 1 hour at 37° C., 5% CO2. Test compounds (at 10 point half log concentration response curves from 10 μM) were added to cells for 15 minutes prior to the addition of orexin-A to all wells, to achieve a final concentration that produces approximately an 80% maximal response. The IC50 values were determined from ten point concentration response curves. Curves were generated using the average of two wells for each data point.

[2] = target: human orexin receptor 1 (Homo sapiens (Human), UniProt O43613); assay: Orexin antagonist activity, intracellular calcium FLIPR assay (orexin receptor 1); format: cell-based; conditions: RBL-2H3 cells stably expressing human orexin receptor 1; Ca2+ dye FLIPR; compound 15 minutes before orexin-A at approximately 80% maximal response; read-out: Human Orexin1R IC50
human orexin receptor 1, sequence (O43613 whole entry): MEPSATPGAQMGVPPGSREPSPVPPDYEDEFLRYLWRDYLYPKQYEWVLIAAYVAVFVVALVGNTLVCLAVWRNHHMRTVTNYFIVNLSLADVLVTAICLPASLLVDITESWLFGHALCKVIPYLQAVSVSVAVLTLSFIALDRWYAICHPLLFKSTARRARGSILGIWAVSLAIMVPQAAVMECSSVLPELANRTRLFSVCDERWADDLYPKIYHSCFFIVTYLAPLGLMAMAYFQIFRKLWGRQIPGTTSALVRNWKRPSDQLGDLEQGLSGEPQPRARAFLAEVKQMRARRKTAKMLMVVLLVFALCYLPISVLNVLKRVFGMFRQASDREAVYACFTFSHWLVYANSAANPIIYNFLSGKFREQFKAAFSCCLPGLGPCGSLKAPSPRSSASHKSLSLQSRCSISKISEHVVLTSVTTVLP
Protocol: as §1

Row | Molecule | IC50 [1] [nM] | IC50 [2] [nM]
1 | 5-Methyl-N-((1S,2S)-2-(quinoxalin-2-ylamino)cyclopentyl)-2-(2H-1,2,3-triazol-2-yl) benzamide [Example 21] | 5100 | –
2 | COc1cccc(OC)c1C(=O)N[C@@H]1COC[C@H]1Nc1nc2ccc(F)cc2s1 (relative stereo) [Example 65, trans-N-{4-[(6-Fluoro-1,3-benzothiazol-2-yl)amino]oxolan-3-yl}-2,6-dimethoxybenzamide] | > 10000 | 29
3 | Cc1ccc(-n2nccn2)c(C(=O)N[C@@H]2COC[C@@H]2Cc2nc3ccccc3s2)c1 (relative stereo) [Example 102, cis-N-[4-(1,3-Benzothiazol-2-ylmethyl)oxolan-3-yl]-5-methyl-2-(2H-1,2,3-triazol-2-yl)benzamide] | > 10000 | 79
4 | Cc1ccc(-n2nccn2)c(C(=O)NC2CCCC2Cc2ccc3ccccc3n2)c1 (single isomer, unassigned) [Example 61, 5-Methyl-N-[2-(quinolin-2-ylmethyl)cyclopentyl]-2-(2H-1,2,3-triazol-2-yl)benzamide] | > 10000 | 35
5 | Cc1ccc(-n2nccn2)c(C(=O)NC2CCCC2Cc2ccc3ccccc3n2)c1 (single isomer, unassigned) [Example 62, 5-Methyl-N-[2-(quinolin-2-ylmethyl)cyclopentyl]-2-(2H-1,2,3-triazol-2-yl)benzamide] | > 10000 | > 10000
6 | O=C(NC1COCC1Nc1nc2ccc(F)cc2s1)c1ccccc1-n1nccn1 (single isomer, unassigned) [Example 100, trans-N-{4-[(6-Fluoro-1,3-benzothiazol-2-yl)amino]oxolan-3-yl}-2-(2H-1,2,3-triazol-2-yl)benzamide] | > 10000 | 22
7 | O=C(NC1COCC1Nc1nc2ccc(F)cc2s1)c1ccccc1-n1nccn1 (single isomer, unassigned) [Example 101, trans-N-{4-[(6-Fluoro-1,3-benzothiazol-2-yl)amino]oxolan-3-yl}-2-(2H-1,2,3-triazol-2-yl)benzamide] | 3800 | 730
8 | O=C(NC1CC(F)(F)CC1Nc1nc2ccc(F)cc2s1)c1ccccc1-n1nccn1 (single isomer, unassigned) [Example 103, N-{4,4-Difluoro-2-[(6-fluoro-1,3-benzothiazol-2-yl)amino]cyclopentyl}-2-(2H-1,2,3-triazol-2-yl)benzamide] | 627 | 266
9 | O=C(NC1CC(F)(F)CC1Nc1nc2ccc(F)cc2s1)c1ccccc1-n1nccn1 (single isomer, unassigned) [Example 104, N-{4,4-Difluoro-2-[(6-fluoro-1,3-benzothiazol-2-yl)amino]cyclopentyl}-2-(2H-1,2,3-triazol-2-yl)benzamide] | 4500 | 13
10 | O=C(NC1CC(F)(F)CC1Nc1nc2ccc(Cl)cc2s1)c1ccccc1-n1nccn1 (single isomer, unassigned) [Example 105, N-{2-[(6-Chloro-1,3-benzothiazol-2-yl)amino]-4,4-difluorocyclopentyl}-2-(2H-1,2,3-triazol-2-yl)benzamide] | 3540 | –
11 | O=C(NC1CC(F)(F)CC1Nc1nc2ccc(Cl)cc2s1)c1ccccc1-n1nccn1 (single isomer, unassigned) [Example 106, N-{2-[(6-Chloro-1,3-benzothiazol-2-yl)amino]-4,4-difluorocyclopentyl}-2-(2H-1,2,3-triazol-2-yl)benzamide] | 441 | –
12 | COc1cccc(OC)c1C(=O)NC1C[C@@H](O)CC1Nc1nc2ccc(Cl)cc2s1 (stereo in doubt) [Example 25, N-[(1S,2R,4R)-2-[(6-Chloro-1,3-benzothiazol-2-yl)amino]-4-hydroxycyclopentyl]-2,6-dimethoxybenzamide] | 130 | 340
13 | COc1cccc(OC)c1C(=O)N[C@H]1CC(F)C[C@H]1Nc1nc2ccc(Cl)cc2s1 (stereo in doubt) [Example 26, N-[(1S,2R)-2-[(6-Chloro-1,3-benzothiazol-2-yl)amino]-4-fluorocyclo-pentyl]-2,6-dimethoxybenzamide] | > 10000 | 64
14 | Cc1ccccc1C(=O)NC1CCC[C@@H]1Nc1nc2ccc(F)cc2s1 (stereo in doubt) [Example 51, N-[(1S,2S)-2-[(6-Fluoro-1,3-benzothiazol-2-yl)amino]cyclopentyl]-2-methylbenzamide] | 4000 | 250
15 | O=C(NC1CCC[C@@H]1Nc1nc2ccc(F)cc2s1)c1c(Cl)cccc1Cl (stereo in doubt) [Example 52, 2,6-Dichloro-N-[(1S,2S)-2-[(6-fluoro-1,3-benzothiazol-2-yl)amino]-cyclopentyl]benzamide] | – | 270
16 | O=C(N[C@H]1CCCC1Nc1nc2ccc(F)cc2s1)c1ccccc1-n1nccn1 (stereo in doubt) [Example 75, N-[(1S,2R)-2-[(6-Fluoro-1,3-benzothiazol-2-yl)amino]cyclopentyl]-2-(2H-1,2,3-triazol-2-yl)benzamide] | 260 | 5

Row | Molecule | IC50 [1] [nM] | IC50 [2] [nM]
17 | O=C(NC1CCC[C@@H]1Nc1nc2ccncc2s1)c1ccccc1-n1nccn1 (stereo in doubt) [Example 97, N-[(1S,2S)-2-({[1,3]Thiazolo[5,4-c]pyridin-2-yl}amino)cyclopentyl]-2-(2H-1,2,3-triazol-2-yl)benzamide] | > 10000 | 780
18 | Cc1noc(-c2ccccc2C(=O)NC2CCC[C@@H]2Nc2nc3ccc(F)cc3o2)n1 (stereo in doubt) [Example 99, N-[(1S,2S)-2-[(6-Fluoro-1,3-benzoxazol-2-yl)amino]cyclopentyl]-2-(3-methyl-1,2,4-oxadiazol-5-yl)benzamide] | > 10000 | 12
19 | COc1cccc(OC)c1C(=O)N[C@H]1CCC[C@H]1Nc1cnc2ccccc2n1 [Example 1, 2,6-Dimethoxy-N-[(1S,2R)-2-[(quinoxalin-2-yl)amino]cyclopentyl]-benzamide] | 98 | 0.84
20 | COc1cccc(OC)c1C(=O)N[C@H]1CCC[C@@H]1Nc1cnc2ccccc2n1 [Example 2, 2,6-Dimethoxy-N-((1S,2S)-2-(quinoxalin-2-ylamino)cyclopentyl)benzamide] | 6500 | 36
21 | COc1cccc(OC)c1C(=O)N[C@H]1CCC[C@@H]1Nc1nc2ccc(F)cc2s1 [Example 3, N-[(1S,2S)-2-[(6-Fluoro-1,3-benzothiazol-2-yl)amino]cyclopentyl]-2,6-dimethoxybenzamide] | 7600 | 4.2
22 | COc1cccc(OC)c1C(=O)N[C@H]1CCC[C@@H]1Nc1nc2ccccc2s1 [Example 4, N-[(1S,2S)-2-[(1,3-Benzothiazol-2-yl)amino]cyclopentyl]-2,6-dimethoxybenzamide] | > 10000 | 12
23 | COc1cccc(OC)c1C(=O)N[C@H]1CCC[C@H]1Nc1nc2ccccc2s1 [Example 5, N-[(1S,2R)-2-[(1,3-Benzothiazol-2-yl)amino]cyclopentyl]-2,6-dimethoxybenzamide] | 510 | 12
24 | Cc1ccc(-n2nccn2)c(C(=O)NC2CCCC2Cc2nc3ccc(Cl)cc3s2)c1 (centres unmarked) [Example 33, N-{2-[(6-Chloro-1,3-benzothiazol-2-yl)methyl]cyclopentyl}-5-methyl-2-(2H-1,2,3-triazol-2-yl)benzamide] | – | 51
25 | O=C(N[C@H]1CCC[C@@H]1Nc1nc2ccc(F)cc2s1)c1cc(F)ccc1-c1ncccn1 [Example 42, 5-Fluoro-N-[(1S,2S)-2-[(6-fluoro-1,3-benzothiazol-2-yl)amino]cyclopentyl]-2-(pyrimidin-2-yl)benzamide] | – | 24
26 | O=C(N[C@H]1CCC[C@@H]1Nc1nc2ccc(F)cc2s1)c1cc(F)ccc1-n1ccnn1 [Example 45, 5-Fluoro-N-[(1S,2S)-2-[(6-fluoro-1,3-benzothiazol-2-yl)amino]cyclopentyl]-2-(1H-1,2,3-triazol-1-yl)benzamide] | – | 80
27 | O=C(N[C@H]1CCC[C@@H]1Nc1nc2ccc(F)cc2s1)c1ccccc1OC(F)F [Example 55, 2-(Difluoromethoxy)-N-[(1S,2S)-2-[(6-fluoro-1,3-benzothiazol-2-yl)amino]-cyclopentyl]benzamide] | – | 470
28 | COc1cccc(C(=O)N[C@H]2CCC[C@@H]2Nc2nc3ccc(F)cc3s2)c1 [Example 56, N-[(1S,2S)-2-[(6-Fluoro-1,3-benzothiazol-2-yl)amino]cyclopentyl]-3-methoxybenzamide] | – | 540
29 | Cc1cccc(C(=O)N[C@H]2CCC[C@@H]2Nc2nc3ccc(F)cc3s2)c1 [Example 57, N-[(1S,2S)-2-[(6-Fluoro-1,3-benzothiazol-2-yl)amino]cyclopentyl]-3-methylbenzamide] | – | 780
30 | O=C(N[C@H]1CCC[C@@H]1Nc1nc2ccc(F)cc2s1)c1ccccc1C1CC1 [Example 58, 2-Cyclopropyl-N-[(1S,2S)-2-[(6-fluoro-1,3-benzothiazol-2-yl)amino]-cyclopentyl]benzamide] | – | 870
31 | O=C(N[C@H]1CCC[C@@H]1Nc1nc2ccc(Cl)cc2s1)c1ccccc1-n1nccn1 [Example 91, N-[(1S,2S)-2-[(6-Chloro-1,3-benzothiazol-2-yl)amino]cyclopentyl]-2-(2H-1,2,3-triazol-2-yl)benzamide] | 4700 | –
